The source of these data is publication PMC13366236 (Acta Pharmaceutica Sinica. B, 2025).

The target in one assay is PI3Kδ (Homo sapiens, UniProt O00329). Nature of the assay: biochemical.
A further assay addresses CYP 1A2 (Homo sapiens, UniProt P05177). Put plainly: CYP enzyme inhibition.
In another assay the target is mTOR (Homo sapiens, UniProt P42345). Nature of the assay: mTOR kinase inhibition, Lance Ultra assay. Conditions: for IC50: mTOR, IC50, mean ± SD of triplicate measurements. The assay is classed as biochemical.
The target in the next assay is CYP 3A4 (Homo sapiens, UniProt P08684). Nature of the assay: CYP enzyme inhibition. Conditions: CYP 3A4 IC50.
Another assay has as its target PI3Kγ (Homo sapiens, UniProt P48736). Put plainly: biochemical.
The next assay concerns MDA-MB-436 cells. Put plainly: Cell viability CCK-8 assay. The assay is classed as cell-based. The conditions noted are these: Homo sapiens, MDA-MB-436, 48 h, read-out: Antiproliferative IC50 ± SD. A general note: Tetrazolium dyes change colour on reduction, which living cells bring about.
A further assay relates to HCT-116 cells. Nature of the assay: Cell viability CCK-8 assay. The assay is classed as cell-based. Conditions: Homo sapiens, HCT-116, 48 h, read-out: Antiproliferative IC50 ± SD.
The next assay concerns the target CYP 2C19 (Homo sapiens, UniProt P33261). Nature of the assay: CYP enzyme inhibition. The conditions noted are these: CYP 2C19 IC50.
In a further assay the target is CYP 2D6 (Homo sapiens, UniProt P10635). Put plainly: CYP enzyme inhibition. Conditions: CYP 2D6 IC50.
For another assay, the target named is PI3Kα (Homo sapiens, UniProt P42336). Nature of the assay: biochemical.
Assay [1] has as its system MDA-MB-231 cells. Nature of the assay: Cell viability CCK-8 assay. The assay is classed as cell-based, human. Conditions: Homo sapiens, MDA-MB-231, 48 h, read-out: Antiproliferative IC50 ± SD.
In another assay the test system is MCF-7 cells. Nature of the assay: Cell viability CCK-8 assay. The conditions noted are these: Homo sapiens, MCF7, 48 h, read-out: Antiproliferative IC50 ± SD. The assay is classed as cell-based.
Another assay addresses CYP 2C9 (Homo sapiens, UniProt P11712). Put plainly: CYP enzyme inhibition. The conditions noted are these: CYP 2C9 IC50.
A further assay has as its target PI3Kβ (Homo sapiens, UniProt P42338). Put plainly: biochemical.
For another assay, the system named is MDA-MB-231 xenograft. Put plainly: MDA-MB-231 xenograft tumor model. Format: in vivo, female BALB/c nude mice. The conditions noted are these: i.v., Day 15; for Tumor size: mean ± SEM.
Assay [2] concerns MDA-MB-231 cells. Nature of the assay: Wound healing. The assay is classed as cell-based, human. The conditions noted are these: MDA-MB-231, 0.25, 0.5, 1.0 μmol/L, concentration-dependent.
Assay [3] concerns MDA-MB-231 cells. Nature of the assay: Colony formation assay. Format: cell-based, human. Conditions: MDA-MB-231, 0.05, 0.1, 0.5 μmol/L.
Assay [4] relates to MDA-MB-231 cells. Put plainly: Apoptosis, Annexin V-AF647/7AAD flow cytometry. Conditions: MDA-MB-231, 2 μmol/L, 24 h. Format: cell-based, human. In general terms: Flow cytometry measures light scatter and fluorescence of single cells or particles in a stream.

Marks after values point to notes of the source that are not given here.

CYP 2C19, sequence (P33261 whole entry): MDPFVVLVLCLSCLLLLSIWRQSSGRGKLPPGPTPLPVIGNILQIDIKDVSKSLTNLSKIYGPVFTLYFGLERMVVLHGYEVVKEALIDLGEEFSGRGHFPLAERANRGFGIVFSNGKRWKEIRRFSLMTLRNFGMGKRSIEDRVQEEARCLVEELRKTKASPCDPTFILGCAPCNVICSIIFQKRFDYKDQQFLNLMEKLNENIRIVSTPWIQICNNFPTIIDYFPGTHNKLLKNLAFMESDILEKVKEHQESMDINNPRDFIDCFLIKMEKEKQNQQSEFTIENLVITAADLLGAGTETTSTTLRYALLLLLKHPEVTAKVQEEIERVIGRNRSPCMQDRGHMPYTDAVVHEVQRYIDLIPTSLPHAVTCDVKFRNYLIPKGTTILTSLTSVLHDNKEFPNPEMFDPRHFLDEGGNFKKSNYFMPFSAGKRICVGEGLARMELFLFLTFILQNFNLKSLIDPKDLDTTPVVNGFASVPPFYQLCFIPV
PI3Kγ, sequence (P48736 whole entry): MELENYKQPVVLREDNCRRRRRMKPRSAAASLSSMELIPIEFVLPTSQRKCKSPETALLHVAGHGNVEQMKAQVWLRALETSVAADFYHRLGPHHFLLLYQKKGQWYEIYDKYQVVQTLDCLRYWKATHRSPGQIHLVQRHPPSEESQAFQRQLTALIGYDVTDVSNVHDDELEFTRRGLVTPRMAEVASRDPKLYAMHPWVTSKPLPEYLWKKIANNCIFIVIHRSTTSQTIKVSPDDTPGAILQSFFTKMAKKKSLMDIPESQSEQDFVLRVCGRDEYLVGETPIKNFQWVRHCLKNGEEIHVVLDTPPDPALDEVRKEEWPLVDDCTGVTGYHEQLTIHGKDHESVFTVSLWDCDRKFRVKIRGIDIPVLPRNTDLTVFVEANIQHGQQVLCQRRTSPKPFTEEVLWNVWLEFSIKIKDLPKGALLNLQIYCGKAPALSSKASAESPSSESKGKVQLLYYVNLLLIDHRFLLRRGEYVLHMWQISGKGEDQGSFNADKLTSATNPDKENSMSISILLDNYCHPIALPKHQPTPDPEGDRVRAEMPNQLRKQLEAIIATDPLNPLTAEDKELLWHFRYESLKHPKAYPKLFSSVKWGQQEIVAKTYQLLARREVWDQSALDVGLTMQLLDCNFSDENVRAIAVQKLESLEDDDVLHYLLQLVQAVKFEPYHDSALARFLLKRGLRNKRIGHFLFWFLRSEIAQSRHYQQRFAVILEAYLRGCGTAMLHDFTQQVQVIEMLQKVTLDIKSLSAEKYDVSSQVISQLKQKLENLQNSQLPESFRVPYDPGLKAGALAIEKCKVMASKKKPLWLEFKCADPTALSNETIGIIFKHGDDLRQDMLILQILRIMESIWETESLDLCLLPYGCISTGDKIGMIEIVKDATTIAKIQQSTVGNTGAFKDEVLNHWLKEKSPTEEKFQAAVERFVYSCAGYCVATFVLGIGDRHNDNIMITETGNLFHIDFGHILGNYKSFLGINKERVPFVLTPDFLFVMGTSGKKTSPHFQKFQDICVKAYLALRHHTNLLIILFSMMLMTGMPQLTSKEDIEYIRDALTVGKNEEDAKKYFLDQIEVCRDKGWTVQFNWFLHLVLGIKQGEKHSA
PI3Kβ, sequence (P42338 whole entry): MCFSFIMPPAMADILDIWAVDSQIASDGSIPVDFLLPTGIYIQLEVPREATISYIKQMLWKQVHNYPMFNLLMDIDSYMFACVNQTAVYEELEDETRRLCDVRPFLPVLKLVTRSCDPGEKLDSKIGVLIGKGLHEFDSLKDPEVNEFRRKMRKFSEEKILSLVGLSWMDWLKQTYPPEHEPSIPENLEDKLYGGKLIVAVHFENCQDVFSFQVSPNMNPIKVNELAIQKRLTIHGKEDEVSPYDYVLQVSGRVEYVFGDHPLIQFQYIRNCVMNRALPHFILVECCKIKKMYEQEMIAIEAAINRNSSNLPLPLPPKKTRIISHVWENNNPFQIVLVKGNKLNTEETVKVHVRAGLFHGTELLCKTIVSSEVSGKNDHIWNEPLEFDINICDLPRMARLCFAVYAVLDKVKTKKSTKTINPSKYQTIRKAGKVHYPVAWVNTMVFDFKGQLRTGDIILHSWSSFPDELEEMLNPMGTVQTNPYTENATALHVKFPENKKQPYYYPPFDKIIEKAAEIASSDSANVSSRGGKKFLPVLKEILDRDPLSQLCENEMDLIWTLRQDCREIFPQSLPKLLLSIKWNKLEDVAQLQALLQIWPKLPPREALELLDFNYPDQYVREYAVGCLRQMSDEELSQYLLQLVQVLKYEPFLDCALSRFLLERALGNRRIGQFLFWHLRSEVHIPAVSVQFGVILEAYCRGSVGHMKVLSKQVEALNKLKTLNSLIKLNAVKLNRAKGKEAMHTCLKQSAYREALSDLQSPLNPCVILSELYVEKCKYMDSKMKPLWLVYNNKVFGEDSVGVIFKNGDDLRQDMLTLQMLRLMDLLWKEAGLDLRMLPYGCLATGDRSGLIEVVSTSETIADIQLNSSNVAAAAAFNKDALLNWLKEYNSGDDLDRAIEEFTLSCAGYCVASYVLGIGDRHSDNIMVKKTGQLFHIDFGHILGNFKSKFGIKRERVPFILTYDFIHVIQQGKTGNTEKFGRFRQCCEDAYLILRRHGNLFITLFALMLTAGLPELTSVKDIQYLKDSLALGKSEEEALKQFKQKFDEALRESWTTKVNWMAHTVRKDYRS
PI3Kβ, sequence (P27986 whole entry partner): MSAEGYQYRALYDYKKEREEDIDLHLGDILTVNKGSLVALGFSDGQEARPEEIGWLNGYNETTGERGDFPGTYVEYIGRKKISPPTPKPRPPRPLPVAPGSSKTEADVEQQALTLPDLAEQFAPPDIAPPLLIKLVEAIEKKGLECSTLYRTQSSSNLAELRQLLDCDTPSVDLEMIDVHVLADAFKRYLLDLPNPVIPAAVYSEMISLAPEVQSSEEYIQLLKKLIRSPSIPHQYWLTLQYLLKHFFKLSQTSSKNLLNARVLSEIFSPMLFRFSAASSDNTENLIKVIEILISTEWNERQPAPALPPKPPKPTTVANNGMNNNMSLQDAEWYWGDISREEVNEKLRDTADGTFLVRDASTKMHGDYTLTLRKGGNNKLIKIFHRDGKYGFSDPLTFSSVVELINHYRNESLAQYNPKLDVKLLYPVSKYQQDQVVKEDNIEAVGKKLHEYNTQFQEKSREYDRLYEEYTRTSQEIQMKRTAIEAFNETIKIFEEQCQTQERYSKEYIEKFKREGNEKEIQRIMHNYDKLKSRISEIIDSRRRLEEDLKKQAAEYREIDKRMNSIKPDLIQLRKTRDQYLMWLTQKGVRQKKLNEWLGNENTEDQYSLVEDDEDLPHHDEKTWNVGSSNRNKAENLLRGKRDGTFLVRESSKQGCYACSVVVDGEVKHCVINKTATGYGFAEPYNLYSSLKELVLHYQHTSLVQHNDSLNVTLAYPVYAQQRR
PI3Kδ, sequence (O00329 whole entry): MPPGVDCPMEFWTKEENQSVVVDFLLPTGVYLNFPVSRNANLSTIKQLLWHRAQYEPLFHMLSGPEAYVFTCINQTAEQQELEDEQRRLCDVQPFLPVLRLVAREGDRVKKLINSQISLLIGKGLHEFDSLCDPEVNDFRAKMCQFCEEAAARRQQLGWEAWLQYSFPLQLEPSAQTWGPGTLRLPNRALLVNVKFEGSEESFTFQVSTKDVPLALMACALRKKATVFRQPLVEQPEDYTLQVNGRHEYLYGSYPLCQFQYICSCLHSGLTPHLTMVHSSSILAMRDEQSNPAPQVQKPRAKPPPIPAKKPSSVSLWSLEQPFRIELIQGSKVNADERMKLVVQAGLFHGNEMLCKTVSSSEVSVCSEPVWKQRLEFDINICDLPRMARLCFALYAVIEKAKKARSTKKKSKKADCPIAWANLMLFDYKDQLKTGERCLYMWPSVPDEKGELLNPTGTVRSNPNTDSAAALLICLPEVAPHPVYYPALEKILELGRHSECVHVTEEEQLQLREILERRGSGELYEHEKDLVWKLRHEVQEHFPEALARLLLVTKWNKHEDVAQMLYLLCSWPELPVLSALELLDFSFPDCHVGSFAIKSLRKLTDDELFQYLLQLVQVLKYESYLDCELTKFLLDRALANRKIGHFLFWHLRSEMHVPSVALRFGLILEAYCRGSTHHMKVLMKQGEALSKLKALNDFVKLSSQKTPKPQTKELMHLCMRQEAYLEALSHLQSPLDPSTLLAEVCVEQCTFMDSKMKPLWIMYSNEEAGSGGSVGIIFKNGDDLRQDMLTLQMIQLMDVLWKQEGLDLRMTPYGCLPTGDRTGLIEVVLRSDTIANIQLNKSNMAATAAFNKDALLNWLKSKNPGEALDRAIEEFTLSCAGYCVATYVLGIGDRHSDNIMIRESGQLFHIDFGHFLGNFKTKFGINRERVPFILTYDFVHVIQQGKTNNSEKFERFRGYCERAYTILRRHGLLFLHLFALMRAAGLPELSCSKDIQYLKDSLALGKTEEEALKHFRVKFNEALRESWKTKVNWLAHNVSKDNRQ
PI3Kδ, sequence (P27986 whole entry partner): as the sequence (P27986 whole entry partner) above
CYP 3A4, sequence (P08684 whole entry): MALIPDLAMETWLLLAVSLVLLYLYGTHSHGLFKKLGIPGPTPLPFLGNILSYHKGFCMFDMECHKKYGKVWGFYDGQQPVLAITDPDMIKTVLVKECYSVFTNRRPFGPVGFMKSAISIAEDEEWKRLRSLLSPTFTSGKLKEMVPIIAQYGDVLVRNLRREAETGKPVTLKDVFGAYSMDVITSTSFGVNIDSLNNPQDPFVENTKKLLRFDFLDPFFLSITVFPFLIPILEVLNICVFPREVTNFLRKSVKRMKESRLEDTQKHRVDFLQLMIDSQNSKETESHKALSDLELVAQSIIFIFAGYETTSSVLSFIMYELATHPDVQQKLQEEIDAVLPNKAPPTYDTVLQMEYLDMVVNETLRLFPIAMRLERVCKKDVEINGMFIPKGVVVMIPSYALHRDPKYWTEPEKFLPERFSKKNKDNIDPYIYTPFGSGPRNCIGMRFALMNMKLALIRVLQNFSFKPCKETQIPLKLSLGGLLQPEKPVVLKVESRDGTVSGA

One may read the IC50 as the concentration that inhibits the measured activity by half. As for `NCCC(=O)Nc1ccccc1/N=c1\cc(-c2ccc3nc(N)oc3c2)oc2ccccc12` [Compound 12a, (E)-3-amino-N-(2-((2-(2-aminobenzo[d]oxazol-6-yl)-4H-chromen-4-ylidene)amino)phenyl)propanamide], the IC50 against PI3Kδ is more than 10000 nM; on CYP 1A2 it was more than 50000 nM; against mTOR, 45.2 ± 8.8 nM; against CYP 3A4, 7860 nM; on PI3Kγ it was more than 10000 nM; with MDA-MB-436 cells, 498 ± 18.1 nM. In addition, the IC50 with HCT-116 cells was 1510 ± 361 nM; on CYP 2C19 it was 680 nM; against CYP 2D6, 5520 nM; at PI3Kα it was more than 10000 nM; in the assay with MDA-MB-231 cells [1], 337 ± 12.8 nM; in the assay on MCF-7 cells, 118 ± 63.6 nM. For the same molecule, the IC50 on CYP 2C9 is 140 nM; on PI3Kβ, more than 10000 nM. Also, the “fold more potent than the lead compound MT-1 (mTOR IC50)” value at mTOR (vs MT-1) was determined as 34 fold.

Regarding `CNCCC(=O)Nc1ccccc1/N=c1\cc(-c2ccc3nc(N)oc3c2)oc2ccccc12` [Compound 12c, (E)-N-(2-((2-(2-aminobenzo[d]oxazol-6-yl)-4H-chromen-4-ylidene)amino)phenyl)-3-(methylamino)propanamide], the 50% inhibitory concentration (IC50) is 473 ± 42.4 nM on mTOR; 566 ± 9.1 nM in the assay with MDA-MB-436 cells; 900.5 ± 5.5 nM in the assay on HCT-116 cells; 104 ± 3.3 nM in the assay with MDA-MB-231 cells [1]; 1316 ± 6.4 nM in the assay with MCF-7 cells.

With `Nc1nc2ccc(-c3c/c(=N\c4ccccc4NC(=O)C4CCNC4)c4ccccc4o3)cc2o1` (stereo not drawn) [Compound 12i, (E)-N-(2-((2-(2-aminobenzo[d]oxazol-6-yl)-4H-chromen-4-ylidene)amino)phenyl)pyrrolidine-3-carboxamide], the IC50 against mTOR came out at 165 ± 8.1 nM; in the assay with HCT-116 cells, 313200 ± 5.7 nM; in the assay on MDA-MB-231 cells [1] it was 285 ± 425 nM; with MCF-7 cells it was 1487 ± 2.8 nM.

`NCCC(=O)Nc1ccccc1/N=c1\cc(-c2ccc3nc(N)oc3c2)oc2ccc(F)cc12` [Compound 12k, (E)-3-amino-N-(2-((2-(2-aminobenzo[d]oxazol-6-yl)-6-fluoro-4H-chromen-4-ylidene)amino)phenyl)propanamide]: the IC50 against mTOR turned out to be 166 ± 6.3 nM; with MDA-MB-436 cells, 112 ± 62.3 nM; in the assay with HCT-116 cells, 307.9 ± 2.2 nM; with MDA-MB-231 cells [1], 125 ± 5.9 nM; in the assay on MCF-7 cells it was 211 ± 87.7 nM.

With `NCCC(=O)Nc1ccccc1/N=c1\cc(-c2ccc3nc(N)oc3c2)oc2cc(O)ccc12` [Compound 12m, (E)-3-amino-N-(2-((2-(2-aminobenzo[d]oxazol-6-yl)-7-hydroxy-4H-chromen-4-ylidene)amino)phenyl)propanamide], the IC50 against mTOR is 40.2 ± 1 nM; in the assay on MDA-MB-436 cells, more than 10000 nM; in the assay with HCT-116 cells it was more than 10000 nM; with MDA-MB-231 cells [1] it was more than 10000 nM; in the assay on MCF-7 cells, more than 10000 nM.

For `NCCC(=O)Nc1ccccc1/N=c1\cc(-c2ccc3nc(N)oc3c2)oc2ccc(O)cc12` [Compound 12n, (E)-3-amino-N-(2-((2-(2-aminobenzo[d]oxazol-6-yl)-6-hydroxy-4H-chromen-4-ylidene)amino)phenyl)propanamide], the IC50 on mTOR is 26.3 ± 0.2 nM; in the assay with HCT-116 cells, 1570 ± 132 nM; in the assay on MDA-MB-231 cells [1] it was 1770 ± 473 nM; with MCF-7 cells, 547 ± 679 nM. In addition, the “fold more potent than 12a (mTOR IC50)” value on mTOR (vs 12a) came to 1.72 fold.

As a reminder, the T/C is the ratio of treated to control. `COc1cccc2c1C(=O)c1c(O)c3c(c(O)c1C2=O)C[C@@](O)(C(=O)CO)C[C@@H]3O[C@H]1C[C@H](N)[C@H](O)[C@H](C)O1` [Doxorubicin, reference compound]: in the assay with MDA-MB-231 xenograft (2.5 mg/kg, Q7D × 2), the T/C is on record as 31.82%, the TGI was 68.18 ^d % and the Tumor size amounted to 115.17 ± 32.95 mm^3. Also, the half-maximal inhibitory concentration (IC50) in the assay on MDA-MB-231 cells [1] turned out to be 75.6 nM.

For `Oc1cccc(-c2nc(N3CCOCC3)c3oc4ncccc4c3n2)c1` [PI-103, reference compound], the “anti-migration effect” value with MDA-MB-231 cells [2] is given as “significantly inhibit the migration”. For the same molecule, the half-maximal inhibitory concentration (IC50) in the assay on MDA-MB-436 cells is more than 10000 nM; in the assay with HCT-116 cells, more than 10000 nM; in the assay on MDA-MB-231 cells [1], more than 10000 nM; in the assay on MCF-7 cells, 2790 ± 346 nM. In the assay with MDA-MB-231 xenograft (20 mg/kg, Q3D × 6), this molecule registered a T/C of 61.36%. For the same molecule, in the assay with MDA-MB-231 xenograft (20 mg/kg, Q3D × 6), the TGI is reported as 38.64 ^d %. In addition, in the assay on MDA-MB-231 xenograft (20 mg/kg, Q3D × 6), the Tumor size came out at 256.59 ± 40.06 mm^3. The “colony formation ability” value with MDA-MB-231 cells [3] is on record as “significantly inhibited”. Moreover, in the assay with MDA-MB-231 cells [4], the “percentage of total apoptotic cells” value is on record as 4.47%.

For the molecule `CC(=O)O[C@H]1C(=O)[C@@]2(C)[C@H]([C@H](OC(=O)c3ccccc3)[C@]3(O)C[C@H](OC(=O)[C@H](O)[C@@H](NC(=O)c4ccccc4)c4ccccc4)C(C)=C1C3(C)C)[C@]1(OC(C)=O)CO[C@@H]1C[C@@H]2O` [Paclitaxel, reference compound], the IC50 in the assay on MDA-MB-231 cells [1] was found to be 3862 ± 13.2 nM.
